Results published in patent publication US6362181B1, “Isoquinolones” (Warner-Lambert Company, priority 1996, dated 2002).
pIC50: −log10 of the molar value. ≈ marks a conversion by molar mass, not a printed value. Like-named read-outs stand apart in the source and are kept apart here.

Columns and labels:
[1] = target: relaxed plasmid pBR322; experiment: DNA intercalation/binding assay; conditions: pBR322 with calf thymus topoisomerase I, 30 minutes at 37° C.; read-out: Drug Concentration causing 50% Intercalation of DNA
Procedure: Compounds of the present invention were evaluated for their ability to intercalate/bind to DNA, using the procedure described in Nucleic Acids Research, 1987;15(15):6713. Specifically, 0.2 μg of relaxed plasmid pBR322 (Lucent, Ltd., Leicester, UK) was treated with 2 U of calf thymus topoisomerase I (Gibco/BRL, Gaithersburg, Md.) in buffer I (10 mM Tris-HCl (Ph 7.5), 50 mM KCl, 5 mM MgCl2, 1 mM Na2EDTA, 15 μg/mL bovine serum albumin) in the presence or absence of test compounds. Reaction were incubated for 30 minutes at 37° C.; volumes were typically 30 μL. Reactions were terminated by the addition of sodium dodecylsulfate (SDS) to 1% and proteinase K to 0.5 mg/mL final concentrations. After an additional 30 minutes at 37° C., one-tenth volume of 10×concentrated loading buffer (0.3% bromophenol blue, 16% Ficoll, 10 mM Na2HPO4) was added, and samples were loaded onto horizontal 0.8% agarose gels prepared in TAE buffer. Electrophoresis was at 22 V for 14 hours. Gels were then stained by soaking for 1.5 hours in deionized water containing 0.2 μg/mL of ethidium bromide, followed by destaining in deionized water for an additional 1.5 hours. Gels were examined and photographed following exposure to UV light. The concentration of the drug which induced a 50% change in the DNA by intercalation is represented by an intercalation IC50 and is recorded in Table 4.

[2] = target: T1, E. coli gyrase (Escherichia coli, UniProt P0AES4+P0AES6); experiment: DNA gyrase supercoiling inhibition assay; assay type: biochemical
T1 construct: purchased Lucent, Ltd., Leicester, UK
T1 sequence (P0AES4 whole entry, one chain of several): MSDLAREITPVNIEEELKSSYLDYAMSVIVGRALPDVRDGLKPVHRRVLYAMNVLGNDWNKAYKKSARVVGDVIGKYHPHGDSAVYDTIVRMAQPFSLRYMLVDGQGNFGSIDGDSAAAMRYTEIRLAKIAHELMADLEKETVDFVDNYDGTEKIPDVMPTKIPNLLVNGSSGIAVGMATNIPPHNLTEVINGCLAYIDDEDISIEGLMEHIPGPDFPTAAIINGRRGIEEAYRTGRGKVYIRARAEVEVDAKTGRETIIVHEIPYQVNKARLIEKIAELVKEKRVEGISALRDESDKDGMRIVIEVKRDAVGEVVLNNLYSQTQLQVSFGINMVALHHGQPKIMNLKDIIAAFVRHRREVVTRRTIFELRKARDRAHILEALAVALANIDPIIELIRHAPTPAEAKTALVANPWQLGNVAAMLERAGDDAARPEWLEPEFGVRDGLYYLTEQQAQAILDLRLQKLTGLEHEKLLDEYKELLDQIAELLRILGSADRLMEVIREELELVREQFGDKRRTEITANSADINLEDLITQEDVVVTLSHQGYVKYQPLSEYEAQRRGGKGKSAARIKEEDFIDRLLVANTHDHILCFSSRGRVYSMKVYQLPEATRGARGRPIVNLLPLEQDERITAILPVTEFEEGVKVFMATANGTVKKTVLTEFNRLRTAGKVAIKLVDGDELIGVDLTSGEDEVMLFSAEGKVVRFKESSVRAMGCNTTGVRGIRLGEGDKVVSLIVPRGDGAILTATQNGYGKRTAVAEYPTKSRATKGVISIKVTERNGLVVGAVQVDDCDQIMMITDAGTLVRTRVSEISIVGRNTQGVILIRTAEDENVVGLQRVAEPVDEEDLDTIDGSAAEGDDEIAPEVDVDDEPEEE
Procedure: The effects of test agents on the activity of DNA gyrase was determined by the supercoiling inhibition assay, following reaction conditions recommended by the enzyme supplier (Lucent, Ltd., Leicester, UK), as follows. Reactions were performed in buffer G (35 mM Tris-HCL (pH 7.5), 24 mM KCl, 4 mM MgCl2, 2 mM DTT, 1.8 mM spermidine, 1 mM ATP, 0.1 mg/mL bovine serum albumin). 0.25 μg of relaxed plasmid pBR322 (Lucent, Ltd., Leicester, UK) was reacted with 1 U E. coli gyrase (Lucent, Ltd., Leicester, UK), in the absence or presence of drugs, for 30 minutes at 37° C. Reactions were stopped by the addition of SDS and proteinase K to respective final concentrations of 1% and 0.5 mg/mL. After an additional 30 minutes at 37° C., one-tenth volume of 10×loading buffer (0.3% bromophenol blue, 16% Ficoll, 10 mM Na2HPO4) was added, and reactions were loaded onto agarose gels and electrophoresed as described above for intercalation assays. The concentration of drug inhibiting 50% of the supercoiling activity of DNA gyrase is given as an IC50 and recorded in Table 2.

[3] = tested on: B. subtilis RB1; experiment: Antibacterial assay, standard microtitration, MIC; assay type: cell-based; conditions: Gram positive; for MIC: Bacillus subtilis, read-out: Minimum Inhibitory Concentrations, B. subtilis RB1
Procedure: (§1) The compounds of the present invention were tested against an assortment of gram negative and gram positive organisms using standard microtitration techniques (Cohen, et al., Antimicrob. Agents Chemother., 1985;28:766; Heifetz, et al. Antimicrob. Agents Chemother., 1974;6:124).

[4] = tested on: E. coli To1C; experiment: Antibacterial assay, standard microtitration, MIC; assay type: cell-based; conditions: for MIC: Escherichia coli, TO1C, read-out: Minimum Inhibitory Concentrations, E. coli To1C; for Minimum Inhibitory Concentrations, E. coli To1C: Gram negative
Procedure: as §1

[5] = tested on: S. pyogenes C203; experiment: Antibacterial assay, standard microtitration, MIC; assay type: cell-based; conditions: Gram positive; for MIC: Streptococcus pyogenes, read-out: Minimum Inhibitory Concentrations, S. pyogenes C203
Procedure: as §1

[6] = tested on: S. aureus 29213; experiment: Antibacterial assay, standard microtitration, MIC; assay type: cell-based; conditions: Gram positive; for MIC: Staphylococcus aureus, read-out: Minimum Inhibitory Concentrations, S. aureus 29213
Procedure: as §1

[7] = tested on: E. coli MC4100; experiment: Antibacterial assay, standard microtitration, MIC; assay type: cell-based; conditions: Gram negative; for MIC: Escherichia coli, read-out: Minimum Inhibitory Concentrations, E. coli MC4100
Procedure: as §1

[8] = tested on: E. coli B90; experiment: Antibacterial assay, standard microtitration, MIC; assay type: cell-based; conditions: Gram negative; for MIC: Escherichia coli, read-out: Minimum Inhibitory Concentrations, E. coli B90
Procedure: as §1

[9] = target: T2, E. coli topoisomerase IV (Escherichia coli, UniProt P0AFI2+P20083); experiment: Topoisomerase IV k-DNA decatenation assay; assay type: biochemical
T2 construct: made in house; host or cells: E. coli overexpressing strains
T2 sequence (P0AFI2 whole entry): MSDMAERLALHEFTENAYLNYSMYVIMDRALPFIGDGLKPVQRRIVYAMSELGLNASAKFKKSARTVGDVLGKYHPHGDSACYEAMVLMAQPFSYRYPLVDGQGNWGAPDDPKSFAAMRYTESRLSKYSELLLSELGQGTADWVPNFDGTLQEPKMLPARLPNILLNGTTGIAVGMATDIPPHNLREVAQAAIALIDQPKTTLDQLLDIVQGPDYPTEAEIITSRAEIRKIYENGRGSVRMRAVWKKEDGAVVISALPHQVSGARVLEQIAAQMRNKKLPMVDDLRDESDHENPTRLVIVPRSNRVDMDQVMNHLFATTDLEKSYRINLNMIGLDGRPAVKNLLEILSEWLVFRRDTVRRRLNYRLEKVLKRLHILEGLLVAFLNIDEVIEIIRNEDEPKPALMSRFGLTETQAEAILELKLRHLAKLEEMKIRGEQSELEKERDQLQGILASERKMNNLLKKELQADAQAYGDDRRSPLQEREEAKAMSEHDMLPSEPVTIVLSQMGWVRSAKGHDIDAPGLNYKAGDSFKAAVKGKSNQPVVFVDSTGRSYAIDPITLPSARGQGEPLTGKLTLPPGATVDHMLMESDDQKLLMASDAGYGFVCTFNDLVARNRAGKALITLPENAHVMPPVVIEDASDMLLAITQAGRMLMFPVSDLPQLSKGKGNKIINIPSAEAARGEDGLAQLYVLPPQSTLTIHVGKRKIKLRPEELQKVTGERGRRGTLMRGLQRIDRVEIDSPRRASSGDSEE
T2 sequence (P20083 whole entry): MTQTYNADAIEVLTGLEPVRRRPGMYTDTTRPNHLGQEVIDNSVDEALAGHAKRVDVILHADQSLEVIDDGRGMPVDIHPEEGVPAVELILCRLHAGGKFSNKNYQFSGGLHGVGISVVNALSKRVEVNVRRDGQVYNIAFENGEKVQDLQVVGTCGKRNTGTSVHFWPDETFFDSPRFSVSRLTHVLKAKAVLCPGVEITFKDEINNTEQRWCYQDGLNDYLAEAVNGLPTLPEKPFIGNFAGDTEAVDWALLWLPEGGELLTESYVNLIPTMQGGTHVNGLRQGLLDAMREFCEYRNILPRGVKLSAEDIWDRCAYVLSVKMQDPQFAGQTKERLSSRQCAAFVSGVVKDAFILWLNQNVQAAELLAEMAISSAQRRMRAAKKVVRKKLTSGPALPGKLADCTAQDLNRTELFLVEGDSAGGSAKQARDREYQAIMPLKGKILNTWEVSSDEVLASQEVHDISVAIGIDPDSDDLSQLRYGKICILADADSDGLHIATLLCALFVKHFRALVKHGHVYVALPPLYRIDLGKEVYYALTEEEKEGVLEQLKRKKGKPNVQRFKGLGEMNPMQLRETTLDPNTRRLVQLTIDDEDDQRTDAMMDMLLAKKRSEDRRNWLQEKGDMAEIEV
Procedure: Topoisomerase IV was purified from E. coli overexpressing strains and the compounds were assayed according to literature conditions (Journal of Biological Chemistry, 1993;268(32):24481). The k-DNA decatenation assay was used. Briefly, reactions were performed in buffer R (40 mM Tris-HCl (pH 7.5), 6 mM MgCl2, 10 mM DTT, 100 mM potassium glutamate, 40 μM ATP, 50 μg/mL bovine serum albumin, 10 mM NaCl). 0.2 μg of kinetoplast DNA (k-DNA; TopoGen, Columbus, Ohio) was incubated with 5 ng of E. coli topoisomerase IV in the presence or absence of test compounds for 10 minutes at 37° C. Subsequently, one-tenth volume of 10×gel loading buffer (0.3% bromophenol blue, 16% Ficoll, 10 mM Na2HPO4) was added, and samples were loaded onto horizontal 0.8% agarose gels prepared with TBE buffer and containing 0.05 μg/mL of ethidium bromide. Electrophoresis was at 70 V for 2 to 4 hours. Gels were then examined by exposure to UV light. The concentration of drug inhibiting 50% of the decantenating activity of Topoisomerase IV is given as an IC50 and recorded in Table 2.

[10] = Mammalian cell cytotoxicity, colony formation; assay type: cell-based; conditions: Chinese hamster
Procedure: Mammalian Cell Cytotoxicity
The cells were grown overnight and treated with drug for 3 hours at 37° C., at which time the compound containing media was replaced with fresh media. The cells were then incubated for 5 days and examined for colony formation.

[11] = supercoiling of relaxed pBR322, 30 minutes at 37° C., read-out: DNA Gyrase IC50
[12] = k-DNA decatenation, 10 minutes at 37° C., read-out: Top IV IC50

Molecule | pIC50 [1] | pIC50 [2, 11] | MIC [3] [µg/mL] | MIC [4] [µg/mL] | MIC [5] [µg/mL] | MIC [6] [µg/mL] | MIC [7] [µg/mL] | MIC [8] [µg/mL] | also measured
O=C1c2cccc3c4c(cc(c23)C(=O)N1O)OCO4 [Example 122, 2-Hydroxy-5,6-methylenedioxy-benzo[de]isoquinoline-1,3-dione] | < 4.00 | 4.72 | 2 (≈ 7.78 µM) | 0.5 (≈ 1.94 µM) | > 64 | 8 (≈ 31.1 µM) | 2 (≈ 7.78 µM) | 0.5 (≈ 1.94 µM) | –
NC1CCN(c2ccc3c4c(cc(Cl)c(Cl)c24)C(=O)N(O)C3=O)C1.O=C(O)C(F)(F)F (centres unmarked) [Example 117] | – | 5.00 | – | – | – | – | – | – | pIC50 ([9]; read-out: Top IV IC50): 5.40; Minimum Inhibitory Concentrations, B. subtilis RB1 [3]: 2.0 µg/mL; Minimum Inhibitory Concentrations, E. coli To1C [4]: 0.25 µg/mL; Minimum Inhibitory Concentrations, S. pyogenes C203 [5]: 8.0 µg/mL; Minimum Inhibitory Concentrations, S. aureus 29213 [6]: 8.0 µg/mL; Minimum Inhibitory Concentrations, E. coli MC4100 [7]: 2.0 µg/mL; Minimum Inhibitory Concentrations, E. coli B90 [8]: 0.5 µg/mL
CN(C)CCN1C(=O)c2cc([N+](=O)[O-])cc3cc([N+](=O)[O-])cc(c23)C1=O [Ref #1, 5,8-dinitro-2-(2-dimethylaminoethyl)-benzo[de]isoquinoline-1,3-dione, reference compound] | > 5.00 | – | 2 (≈ 5.58 µM) | – | 2 (≈ 5.58 µM) | 4 (≈ 11.2 µM) | 8 (≈ 22.3 µM) | 2 (≈ 5.58 µM) | IC50 at 3 h [10]: < 8 µM
O=C1c2cccc3c(Cl)c(Cl)cc(c23)C(=O)N1O [Example 103, 5,6-Dichloro-2-hydroxy-benzo[de]isoquinoline-1,3-dione] | 4.59 | 5.31 | 1 (≈ 3.55 µM) | 0.5 (≈ 1.77 µM) | > 64 | 16 (≈ 56.7 µM) | 16 (≈ 56.7 µM) | 0.5 (≈ 1.77 µM) | pIC50 [9, 12]: 4.72
CN1CCN(c2c(Cl)cc3c4c(cccc24)C(=O)N(O)C3=O)CC1 [Example 98] | 4.72 | – | 8 (≈ 23.1 µM) | 4 (≈ 11.6 µM) | 8 (≈ 23.1 µM) | 16 (≈ 46.3 µM) | 32 (≈ 92.5 µM) | 4 (≈ 11.6 µM) | pIC50 [9]: 5.52; pIC50 [2]: 4.80
NC1CCN(c2c(Cl)cc3c4c(cc([N+](=O)[O-])cc24)C(=O)N(O)C3=O)C1.O=C(O)C(F)(F)F (centres unmarked) [Example 115] | – | 6.15 | – | – | – | – | – | – | pIC50 ([9]; read-out: Top IV IC50): 5.05; Minimum Inhibitory Concentrations, B. subtilis RB1 [3]: 2.0 µg/mL; Minimum Inhibitory Concentrations, E. coli To1C [4]: 0.5 µg/mL; Minimum Inhibitory Concentrations, S. pyogenes C203 [5]: 4.0 µg/mL; Minimum Inhibitory Concentrations, S. aureus 29213 [6]: >64 µg/mL; Minimum Inhibitory Concentrations, E. coli MC4100 [7]: 8.0 µg/mL; Minimum Inhibitory Concentrations, E. coli B90 [8]: 0.5 µg/mL
Nc1c(Br)cc2c3c(cccc13)C(=O)N(O)C2=O [Example 26, 6-Amino-5-bromo-2-hydroxy-benzo[de]isoquinoline-1,3-dione] | < 4.00 | 5.15 | 0.5 (≈ 1.63 µM) | – | > 64 | 2 (≈ 6.51 µM) | 0.5 (≈ 1.63 µM) | 0.25 (≈ 0.814 µM) | pIC50 [9, 12]: 5.00
NCC1CCN(c2c(Cl)cc3c4c(cccc24)C(=O)N(O)C3=O)C1 (centres unmarked) [Example 85] | – | – | 1 (≈ 2.89 µM) | 0.25 (≈ 0.723 µM) | 4 (≈ 11.6 µM) | 4 (≈ 11.6 µM) | 1 (≈ 2.89 µM) | 0.5 (≈ 1.45 µM) | pIC50 [2]: 5.68
O=C1c2ccc(N3CCCC3)c3cc(Br)cc(c23)C(=O)N1O [Example 59, 5-Bromo-2-hydroxy-7-(pyrrolidin-1-yl)-benzo[de]isoquinoline-1,3-dione] | < 4.00 | 5.59 | 0.5 (≈ 1.38 µM) | 0.06 (≈ 0.166 µM) | > 64 | 1 (≈ 2.77 µM) | 2 (≈ 5.54 µM) | 0.06 (≈ 0.166 µM) | –
6-Hydroximino-2,5-dihydroxy-methyl-benzo[de]isoquinoline-1,3-dione [Example 120] | – | 4.52 | – | – | – | – | – | – | pIC50 [9, 12]: 4.60; Minimum Inhibitory Concentrations, B. subtilis RB1 [3]: >64 µg/mL; Minimum Inhibitory Concentrations, E. coli To1C [4]: 1.0 µg/mL; Minimum Inhibitory Concentrations, S. pyogenes C203 [5]: 64 µg/mL; Minimum Inhibitory Concentrations, S. aureus 29213 [6]: 16 µg/mL; Minimum Inhibitory Concentrations, E. coli MC4100 [7]: >64 µg/mL; Minimum Inhibitory Concentrations, E. coli B90 [8]: 2.0 µg/mL
O=C1c2cccc3c(N4CCOCC4)c([N+](=O)[O-])cc(c23)C(=O)N1O [Example 81] | 4.03 | – | 8 (≈ 23.3 µM) | 8 (≈ 23.3 µM) | > 64 | 32 (≈ 93.2 µM) | > 64 | 8 (≈ 23.3 µM) | melting point: 272 to 274 °C; pIC50 [2]: 4.72
O=C1c2cccc3c(Br)ccc(c23)C(=O)N1O [Example 4, 6-Bromo-2-hydroxy-benzo[de]isoquinoline-1,3-dione] | – | – | 8 (≈ 27.4 µM) | – | > 64 | 16 (≈ 54.8 µM) | > 64 | 8 (≈ 27.4 µM) | IC50 at 3 h ([10]; Chinese hamster cells, drug for 3 hours at 37° C., colony formation after 5 days, read-out: 50% Cytotoxic Conc. in CHO cells): > 250 µM
